Assay results as given in the NIST ThermoML archive (doi:10.1021/je201334p).
± gives the expanded uncertainty stated by the source.

Columns and labels:
[1] = 101 kPa, Liquid; for speed of sound: Sing-around technique in a fixed-path interferometer; for mass density: Vibrating tube method
[2] = molar heat capacity at constant pressure; settings: 101.33 kPa, Liquid, Small sample (50 mg) DSC
[3] = refractive index (Na D-line) (dimensionless); settings: Liquid, Standard Abbe refractometry
[4] = refractive index (Na D-line) (dimensionless); xn = mol fraction of the nth substance listed; settings: 101 kPa, Liquid, Standard Abbe refractometry, x1 = 1
[5] = xn = mol fraction of the nth substance listed; settings: 308.15 K; 101 kPa; Liquid; Sing-around technique in a fixed-path interferometer; x1 = 1

SMILES	speed of sound ([1]; 288.15 K) [m/s]	mass density ([1]; 288.15 K) [kg/m3]	speed of sound ([1]; 298.15 K) [m/s]	mass density ([1]; 298.15 K) [kg/m3]	speed of sound ([1]; 308.15 K) [m/s]	mass density ([1]; 308.15 K) [kg/m3]	molar heat capacity at constant pressure ([2]; 288.15 K) [J/K/mol]	molar heat capacity at constant pressure ([2]; 298.15 K) [J/K/mol]	molar heat capacity at constant pressure ([2]; 308.15 K) [J/K/mol]	refractive index ([3]; 288.15 K, 101 kPa)	refractive index ([3]; 288.15 K, 101.33 kPa)	refractive index ([3]; 298.15 K, 101 kPa)	refractive index ([3]; 298.15 K, 101.33 kPa)	refractive index ([3]; 308.15 K, 101 kPa)	refractive index ([3]; 308.15 K, 101.33 kPa)	refractive index ([4]; 288.15 K)	refractive index ([4]; 298.15 K)	refractive index ([4]; 308.15 K)	speed of sound [5] [m/s]
CCOS(=O)(=O)[O-].CCc1cccc[n+]1CC [1,2-diethylpyridinium ethylsulfate]	1774.5 ± 1.5	1225.93 ± 0.54	1745.2 ± 1.5	1219.26 ± 0.53	1718.4 ± 1.5	1212.65 ± 0.52	399 ± 8	412 ± 8	420 ± 8	1.51631 ± 0.00053	1.51631 ± 0.00053	1.5135 ± 0.00053	1.5135 ± 0.00053	1.51067 ± 0.00053	1.51067 ± 0.00053	–	–	–	–
CCCC[N+]1(C)CCCC1.N#CN=C=[N-] [1-butyl-1-methylpyrrolidinium dicyanamide]	1836.9 ± 2.3	1019.17 ± 1.1	1811.1 ± 2.3	1013.53 ± 1.1	1781.9 ± 2.3	1007.93 ± 1.1	473 ± 9	502 ± 10	521 ± 10	1.49968 ± 0.00063	1.49968 ± 0.00063	1.49681 ± 0.00063	1.49681 ± 0.00063	1.49392 ± 0.00064	1.49392 ± 0.00064	–	–	–	–
CCCC[N+]1(C)CCCC1.O=S(=O)([O-])C(F)(F)F [1-butyl-1-methylpyrrolidinium trifluoromethanesulfonate]	1484.6 ± 1.4	1260.33 ± 0.58	1460.1 ± 1.4	1252.98 ± 0.57	1436.7 ± 1.4	1245.78 ± 0.56	424 ± 8	435 ± 9	441 ± 9	1.43557 ± 0.00052	–	1.43289 ± 0.00052	–	1.43018 ± 0.00052	–	–	–	–	–
CCCCn1cc[n+](C)c1.N#CN=C=[N-] [1-butyl-3-methylimidazolium dicyanamide]	1764.3 ± 2.3	1066.58 ± 1.3	1738.1 ± 2.3	1060.17 ± 1.2	1713.1 ± 2.3	1053.83 ± 1.2	367 ± 7	376 ± 8	381 ± 8	1.51213 ± 0.00065	1.51213 ± 0.00065	1.50893 ± 0.00065	1.50893 ± 0.00065	1.50578 ± 0.00065	1.50578 ± 0.00065	–	–	–	–
CCCCn1cc[n+](C)c1.O=S(=O)([O-])C(F)(F)F [1-butyl-3-methylimidazolium trifluoromethanesulfonate]	1414.3 ± 1.4	1307.5 ± 0.63	1391.4 ± 1.4	1299.55 ± 0.62	1369.1 ± 1.4	1291.62 ± 0.61	–	–	–	1.44032 ± 0.00053	1.44032 ± 0.00053	1.43755 ± 0.00053	1.43755 ± 0.00053	1.43475 ± 0.00053	1.43475 ± 0.00053	–	–	–	–
CCCC[n+]1cccc(C)c1.O=S(=O)([O-])C(F)(F)F [1-butyl-3-methylpyridinium trifluoromethanesulfonate]	1436.1 ± 1.4	1287.07 ± 0.61	1412.3 ± 1.4	1279.41 ± 0.6	1389.6 ± 1.4	1271.8 ± 0.59	496 ± 10	520 ± 10	535 ± 11	1.46446 ± 0.00053	1.46446 ± 0.00053	1.46155 ± 0.00053	1.46155 ± 0.00053	1.45868 ± 0.00053	1.45868 ± 0.00053	–	–	–	–
CCCCCCn1cc[n+](C)c1.N#CN=C=[N-] [1-hexyl-3-methylimidazolium dicyanamide]	1713.4 ± 3.2	1034.76 ± 2.6	1687.7 ± 3.2	1028.56 ± 2.6	1662.7 ± 3.2	1022.4 ± 2.5	510 ± 10	534 ± 11	548 ± 11	1.50729 ± 0.00079	1.50729 ± 0.00079	1.50415 ± 0.00079	1.50415 ± 0.00079	1.501 ± 0.00079	1.501 ± 0.00079	–	–	–	–
COS(=O)(=O)[O-].C[n+]1ccccc1 [1-methylpyridinium methylsulfate]	1901.1 ± 1.5	1352.86 ± 0.69	1875.8 ± 1.5	1346.12 ± 0.68	1852.4 ± 1.5	1339.37 ± 0.67	288 ± 6	299 ± 6	305 ± 6	1.51603 ± 0.00052	1.51603 ± 0.00052	1.5134 ± 0.00052	1.5134 ± 0.00052	1.51077 ± 0.00052	1.51077 ± 0.00052	–	–	–	–
O [water] + CCCCCCn1cc[n+](C)c1.N#CN=C=[N-]	–	–	–	–	–	–	–	–	–	–	–	–	–	–	–	1.33349 ± 0.00041	1.33255 ± 0.00042	1.33131 ± 0.00042	1522.3 ± 1
O [water] + CCCC[N+]1(C)CCCC1.N#CN=C=[N-]	–	–	–	–	–	–	–	–	–	–	–	–	–	–	–	1.33349 ± 0.00041	1.33255 ± 0.00042	1.33131 ± 0.00042	1522.3 ± 1
O [water] + CCCC[N+]1(C)CCCC1.O=S(=O)([O-])C(F)(F)F	–	–	–	–	–	–	–	–	–	–	–	–	–	–	–	1.33349 ± 0.00041	1.33255 ± 0.00042	1.33131 ± 0.00042	1522.3 ± 1
O [water] + CCCC[n+]1cccc(C)c1.O=S(=O)([O-])C(F)(F)F	–	–	–	–	–	–	–	–	–	–	–	–	–	–	–	1.33349 ± 0.00041	1.33255 ± 0.00042	1.33131 ± 0.00042	1522.3 ± 1
O [water] + CCCCn1cc[n+](C)c1.N#CN=C=[N-]	–	–	–	–	–	–	–	–	–	–	–	–	–	–	–	1.33349 ± 0.00041	1.33255 ± 0.00042	1.33131 ± 0.00042	1522.3 ± 1
O [water] + CCCCn1cc[n+](C)c1.O=S(=O)([O-])C(F)(F)F	–	–	–	–	–	–	–	–	–	–	–	–	–	–	–	1.33349 ± 0.00041	1.33255 ± 0.00042	1.33131 ± 0.00042	1522.3 ± 1
O [water] + CCOS(=O)(=O)[O-].CCc1cccc[n+]1CC	–	–	–	–	–	–	–	–	–	–	–	–	–	–	–	1.33349 ± 0.00041	1.33255 ± 0.00042	1.33131 ± 0.00042	1522.3 ± 1
O [water] + COS(=O)(=O)[O-].C[n+]1ccccc1	–	–	–	–	–	–	–	–	–	–	–	–	–	–	–	1.33349 ± 0.00041	1.33255 ± 0.00042	1.33131 ± 0.00042	1522.3 ± 1
